# Assay results reported in patent publication US6900315B2, “2-amino-9H-purin-9-yl compounds and methods for inhibiting/treating HIV infections and AIDS related symptoms” (Yale University, priority 2001, dated 2005).
# Where two headings read alike, the source gives them in different places.
# Legend:
# HEP-G2 = assay: Toxicity, dye based cell growth assay, HEP-G2; conditions: read-out: IC50 (inhibited 50% of the cell growth), HEP-G2, hepatoma cell line, 5 days
# Description: (§1) To determine the toxicity of the compounds to various cell lines (Table 1, below), a similar dye based assay is performed in the absence of HIV. The toxicity of the compounds alone therefore was determined.
# HIV IIIB = assay: Anti-HIV activity in MT-2 cells infected with HIV IIIB, MTT dye cell viability; assay type: cell-based; conditions: read-out: EC50 (concentration necessary to save 50% of the cells), MT-2 cells, HIV IIIB, MOI 0.1, 5 days, MTT, NA = No Activity at concentrations up to 100 uM, EC50 not achievable due to toxicity
# Description: To assess the ability of the compounds according to the present invention to inhibit viral infection relative to other compounds experiments were performed in the MT-2 cell line, as previously described by Larder, et al., Antimicrobial Agents & Chemotherapy, vol. 34, 436 (1990). […] Cells were infected at an initial multiplicity of infection (MOI) of 0.1 and grown for 5 days. Cell viability was assessed by the use of dye metabolized by viable cells.
# [1] = system: mitochondrial DNA in CEM cells; assay: Mitochondrial toxicity: ratio of mitochondrial DNA to Alu repeat in CEM cells; assay type: cell-based; conditions: human, 8 days
# Source text: After 8 days of growth the cells were lysed and probed for the amount of mitochondrial DNA and normalized for differences in the amount of total DNA by probing for the Alu repeat. By comparing the amount of mitochondrial DNA to the amount of Alu repeat the % decrease in mitochondrial DNA in the presence of various concentrations of drug can be obtained. All experiments were done in triplicate. Techniques which are presented here have been previously described in Chen and Cheng, J. Biol. Chem., vol. 264, 11934-7 (1989).
# KB = assay: Toxicity, dye based cell growth assay, KB; conditions: read-out: IC50 (inhibited 50% of the cell growth), oral carcinoma, 5 days
# Description: as §1
# CEM = assay: Toxicity, dye based cell growth assay, CEM; conditions: read-out: IC50 (inhibited 50% of the cell growth), CEM, T cell line, 5 days
# Description: as §1
# HeLa = assay: Toxicity, dye based cell growth assay, HeLa; conditions: read-out: IC50 (inhibited 50% of the cell growth), cervical cancer cell line, 5 days
# Description: as §1
# MT-2 = assay: Toxicity, dye based cell growth assay in absence of HIV, MT-2; conditions: read-out: IC50 (inhibited 50% of the cell growth), MT-2, HTLV infected T cell line, 5 days
# Description: as §1
# [2] = target: T1, mitochondrial polymerase gamma (Homo sapiens, UniProt P54098); assay: Nucleotide incorporation by mitochondrial polymerase gamma into an elongating DNA strand; assay type: biochemical; conditions: mitochondrial polymerase gamma, incorporation
# T1 sequence (P54098 1-1239): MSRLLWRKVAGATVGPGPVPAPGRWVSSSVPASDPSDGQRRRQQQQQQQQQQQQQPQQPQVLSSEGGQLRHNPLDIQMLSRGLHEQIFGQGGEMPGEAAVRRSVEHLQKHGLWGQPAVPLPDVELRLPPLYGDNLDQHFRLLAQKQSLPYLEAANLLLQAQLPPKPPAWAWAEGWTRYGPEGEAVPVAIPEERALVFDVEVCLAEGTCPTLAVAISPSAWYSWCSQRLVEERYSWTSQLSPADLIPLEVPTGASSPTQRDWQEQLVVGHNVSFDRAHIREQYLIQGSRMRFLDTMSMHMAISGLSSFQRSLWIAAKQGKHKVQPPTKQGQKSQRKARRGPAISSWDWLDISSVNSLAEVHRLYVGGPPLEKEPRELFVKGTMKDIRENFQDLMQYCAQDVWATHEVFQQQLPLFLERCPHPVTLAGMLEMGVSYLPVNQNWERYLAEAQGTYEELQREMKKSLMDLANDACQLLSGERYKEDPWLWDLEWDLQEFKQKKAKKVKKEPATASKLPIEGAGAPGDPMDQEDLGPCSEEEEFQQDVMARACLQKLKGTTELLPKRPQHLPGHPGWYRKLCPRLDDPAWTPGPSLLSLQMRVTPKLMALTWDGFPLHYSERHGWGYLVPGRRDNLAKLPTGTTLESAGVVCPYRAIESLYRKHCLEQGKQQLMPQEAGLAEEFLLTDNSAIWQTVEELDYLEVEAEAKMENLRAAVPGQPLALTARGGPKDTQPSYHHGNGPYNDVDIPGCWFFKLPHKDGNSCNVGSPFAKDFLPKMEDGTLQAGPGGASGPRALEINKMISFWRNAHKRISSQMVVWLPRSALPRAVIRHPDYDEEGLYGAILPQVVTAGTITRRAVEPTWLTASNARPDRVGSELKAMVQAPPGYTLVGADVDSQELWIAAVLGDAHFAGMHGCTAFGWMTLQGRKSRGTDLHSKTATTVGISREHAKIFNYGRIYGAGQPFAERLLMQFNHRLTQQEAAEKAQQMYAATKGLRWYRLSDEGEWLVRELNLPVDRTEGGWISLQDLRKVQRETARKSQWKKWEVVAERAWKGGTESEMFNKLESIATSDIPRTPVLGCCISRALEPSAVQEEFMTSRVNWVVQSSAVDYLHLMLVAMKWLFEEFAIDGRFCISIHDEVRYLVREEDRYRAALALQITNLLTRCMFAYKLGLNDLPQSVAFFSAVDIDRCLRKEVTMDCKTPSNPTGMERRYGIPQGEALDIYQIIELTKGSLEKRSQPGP
# [3] = target: T2, wild type HIV-1 reverse transcriptase (Human immunodeficiency virus type 1 group M subtype B, UniProt P04585); design: kpol/Kd: unit not given here; conditions: from Ray and Anderson or Furman et al., cited from earlier work
# T2 construct: a mixture of 100 nM HIV-1 reverse transcriptase and 300 nM primer/template
# [4] = target: T2, wild type HIV-1 reverse transcriptase; assay: Kinetics of nucleotide incorporation by wild type HIV-1 reverse transcriptase; assay type: biochemical; conditions: RT WT
# Description: Continued research on the guanosine prodrug approach for making D4G a viable anti-HIV agent has yielded a number of new findings. In the present example, enzyme kinetics for the incorporation of the active metabolites of guanosine prodrugs with wild type HIV-1 reverse transcriptase was determined. In this experiment, a mixture of 100 nM HIV-1 reverse transcriptase and 300 nM primer/template in which the correct base incorporation is a guanine nucleotide was rapidly mixed with nucleotide in the presence of 50 mM Tris, 50 mM NaCl and 10 mM MgCl2 for a set amount of time and then the reaction was stopped by the addition 300 mM of EDTA.
# [5] = Human immunodeficiency virus 1, MT2, 120 h
# [6] = Table 4, primer/template DNA/DNA
# [7] = Table 4, primer/template DNA/RNA
smiles,measurement,setting,value
"Nc1ccn([C@H]2CC[C@@H](CO)O2)c(=O)n1 [DdC, 2′,3′ dideoxycytodine]",IC50,"HEP-G2; Homo sapiens, HepG2, 120 h",25 ± 2 µM
same,EC50,HIV IIIB; [5],0.3 ± 0.05 µM
same,% Control (mtDNA/Alu),[1]; 0.01 μM,87%
same,Ration of mtDNA/Alu,[1]; 0.01 μM,0.93 ± 0.06
same,% Control (mtDNA/Alu),[1]; 0.1 μM,65%
same,Ration of mtDNA/Alu,[1]; 0.1 μM,0.70 ± 0.04
same,% Control (mtDNA/Alu),[1]; 1 μM,3%
same,Ration of mtDNA/Alu,[1]; 1 μM,0.03 ± 0.01
same,IC50,"KB; Homo sapiens, 120 h",100 ± 11 µM
same,IC50,"CEM; Homo sapiens, CCRF-CEM, 120 h",3 ± 1 µM
same,IC50,"HeLa; Homo sapiens, 120 h",> 100 µM
same,IC50,"MT-2; Homo sapiens, MT2, 120 h",2 ± 0.3 µM
Nc1nc(N)c2ncn([C@H]3CO[C@@H](CO)O3)c2n1 [DAPD],IC50,HEP-G2,500 ± 33 µM
same,EC50,HIV IIIB,15 ± 4 µM
same,IC50,KB,> 500 µM
same,IC50,CEM,> 500 µM
same,IC50,HeLa,500 ± 33 µM
same,IC50,MT-2,> 100 µM
Cc1cn([C@H]2C[C@H](O)[C@@H](COP(=O)(O)OP(=O)(O)OP(=O)(O)O)O2)c(=O)[nH]c1=O [dTTP],Kd,[2],0.6 ± 0.16 µM
same,kpol,[2],25 ± 2 s⁻¹
same,kpol/Kd,[2],3.9e+07 ± 1.3e+07 M⁻¹ s⁻¹
"Nc1nc2c(ncn2C2C=CC(COP(=O)(O)OP(=O)(O)OP(=O)(O)O)C2)c(=O)[nH]1 (single isomer, unassigned; (-)) [CBVTP, (−) carbovir-TP]",Selectivity = (kpol/Kd)dGTP/(kpol/Kd)analog,"[3]; Table 3, substrate DNA/DNA",30
same,kpol,"[3]; Table 3, substrate DNA/DNA",1.0 ± 0.06 s⁻¹
same,kpol/Kd,"[3]; Table 3, substrate DNA/DNA",0.05 ± 0.01
same,Selectivity = (kpol/Kd)dGTP/(kpol/Kd)analog,"[3]; Table 3, substrate DNA/RNA",10
same,kpol,"[3]; Table 3, substrate DNA/RNA",1.5 ± 0.05 s⁻¹
same,kpol/Kd,"[3]; Table 3, substrate DNA/RNA",0.42 ± 0.06
same,Efficiency,[4]; [6],0.05 ± 0.01 s^−1μM^−1
same,Kd,[4]; [6],21 ± 3 µM
same,Selectivity = efficiency dGTP/efficiency analog,[4]; [6],30
same,kpol,[4]; [6],1.0 ± 0.06 s⁻¹
same,Efficiency,[4]; [7],0.42 ± 0.06 s^−1μM^−1
same,Kd,[4]; [7],3.7 ± 0.5 µM
same,Selectivity = efficiency dGTP/efficiency analog,[4]; [7],10
same,kpol,[4]; [7],1.5 ± 0.05 s⁻¹
"OC[C@@H]1CC[C@H](n2cnc3c(O)ncnc32)O1 [DdI, 2′,3′ dideoxyinosine]",IC50,"HEP-G2; Homo sapiens, HepG2, 120 h",> 500 µM
same,EC50,HIV IIIB; [5],20 ± 6 µM
same,IC50,"KB; Homo sapiens, 120 h",> 500 µM
same,IC50,"CEM; Homo sapiens, CCRF-CEM, 120 h",> 500 µM
same,IC50,"HeLa; Homo sapiens, 120 h",500 ± 33 µM
same,IC50,"MT-2; Homo sapiens, MT2, 120 h",> 100 µM
